How the values were obtained:
[1] = Lipophilicity by RP-TLC; assay type: physicochemical; conditions: Tris buffer pH 7.4/acetone, read-out: logPTLC
Protocol: The lipophilicity parameters were determined experimentally using reverse phase thin-layer chromatography (RP-TLC). Chromatograms were prepared on RP-18F254s plates (1.05559.0001, Merck, Germany) precoated with nonpolar silicone oil. Plates were developed in glass chromatography chambers previously saturated with vapor of mobile phase. The mobile phase was composed of 0.2M Tris buffer (pH = 7.4) and acetone in different concentrations, i.e., 50%, 60%, 70%, 80 and 90%. The chromatograms were visualised in UV light (λ = 254 nm). Determination of the RF coefficient was carried out twice for all compounds; in all cases, acetone concentrations used. The final value of RF is the mean of the two measurements. The obtained RF coefficient was used to calculate the value of the RM parameter according to the equation: RM = log [(1/RF) − 1]. By extrapolating RM values to zero acetone concentration, a relative RM0 lipophilicity parameter was obtained, according to the equation: RM = RM0 + bC, where b is slope and C is concentration of acetone in mobile phase. Based on RM0 and the calibration curve, the values of logPTLC for compounds 6a–l were determined. The calibration curve was calculated using the relationship between RM0 of the standard molecules (acetanilide, p-kresol, p-bromoacetophenone, benzophenone, anthracene) and the corresponding logP parameters specified by the extraction method, respectively. RM0 parameters of the standard molecules and quinobenzothiazine derivatives 6a–l were determined in the same empirical conditions.

[2] = tested on: methicillin-resistant S. aureus SA 630 (MRSA2); experiment: MIC, microtitration broth method; assay type: cell-based; conditions: Staphylococcus aureus; MRSA2 = SA 630; 24 h, 37 °C
[3] = tested on: vancomycin-resistant E. faecalis VRE 368 (VRE2); experiment: MBC, agar aliquot subculture method; assay type: cell-based, Enterococcus faecalis; conditions: VRE2 = VRE 368
[4] = tested on: S. aureus; experiment: Crystal violet uptake (membrane permeability); assay type: cell-based, Staphylococcus aureus; conditions: 4× MIC, 1 h; compared to growth control and 1% Tween 20
Protocol: Phenothiazines are also known for their ability to interact with and damage the cell wall, which has fatal consequences for the microorganism. Therefore, the bacterial suspensions were treated by compounds 6a, 6e, 6g, 6j and 6k (4× MIC) for 1 h. The uptake of crystal violet was expressed as a percentage compared to the original crystal violet solution.

[5] = tested on: Enterococcus faecalis ATCC 29212; experiment: MBC, agar aliquot subculture method; assay type: cell-based; conditions: ATCC29212; EF = Enterococcus faecalis
[6] = tested on: methicillin-resistant S. aureus 63718 (MRSA3); experiment: MIC, microtitration broth method; assay type: cell-based; conditions: Staphylococcus aureus; MRSA3 = 63718; 24 h, 37 °C
[7] = tested on: methicillin-resistant S. aureus 63718 (MRSA3); experiment: MBC, agar aliquot subculture method; assay type: cell-based; conditions: Staphylococcus aureus; MRSA3 = 63718
[8] = tested on: vancomycin-resistant E. faecalis VRE 725B (VRE3); experiment: MBC, agar aliquot subculture method; assay type: cell-based, Enterococcus faecalis; conditions: VRE3 = VRE 725B
[9] = tested on: S. aureus ATCC 29213 respiratory activity; experiment: MTT assay of bacterial respiration; assay type: cell-based, Staphylococcus aureus; conditions: for Conc.: corresponding multiple of MBC with at least 70% inhibition of respiratory activity / Conc.: lowest multiple of MIC with at least 70% inhibition of respiratory activity: S. aureus ATCC 29213, MTT, 24 h; for Decrease in viability < 70% at MIC value (MTT): S. aureus ATCC 29213, at MIC; for S. aureus Respiration Inhibition: at the concentration given
[10] = tested on: Mycobacterium marinum CAMP 5644; experiment: In vitro antimycobacterial MIC, broth dilution micro-method; assay type: cell-based; conditions: CAMP5644, 504 h; MM = Mycobacterium marinum CAMP 5644; 21 days, 28 °C
[11] = tested on: normal human dermal fibroblasts (NHDF); experiment: In vitro cell viability, WST-1 assay; assay type: cell-based; conditions: 72 h
Protocol: Compounds were evaluated for their antiproliferative activity using NHDF (normal human dermal fibroblasts, ATCC, Manassas, VA, USA). The cultured cells were kept at 37 °C and 5% CO2. The cells were seeded (1 × 10^4 cells/well/100 μL DMEM supplemented with 10% FCS and streptomycin/penicillin) into 96-well plates (Corning Inc., Corning, NY, USA). Cells were counted using a hemocytometer (Burker chamber) and phase contrast Olympus IX50 microscope equipped with Sony SSC-DC58 AP camera and Olympus DP10 digital camera. The cell viability of the compounds was determined using the Cell Proliferation Reagent WST-1 assay (Roche Molecular Biochemicals, Mannheim, Germany). The examined cells were exposed to the tested compounds (1 mg/mL DMSO stock) for 72 h at various concentrations (0.1–100 μg/mL). The control was included in order to eliminate the DMSO effect at the concentration used. Cell cultures were incubated with WST-1 (10 μL) for 1 h. The absorbance of the samples was measured against a background control at 450 nm using a microplate reader with a reference wavelength at 600 nm. The obtained results are expressed as means of at least two independent experiments performed in triplicate.

[12] = tested on: vancomycin-resistant E. faecalis VRE 342B (VRE1); experiment: MBC, agar aliquot subculture method; assay type: cell-based, Enterococcus faecalis; conditions: VRE1 = VRE 342B
[13] = tested on: methicillin-resistant S. aureus SA 3202 (MRSA1); experiment: MIC, microtitration broth method; assay type: cell-based; conditions: Staphylococcus aureus; MRSA1 = SA 3202; 24 h, 37 °C
[14] = tested on: Staphylococcus aureus ATCC 29213; experiment: MBC, agar aliquot subculture method; assay type: cell-based; conditions: ATCC29213; SA = Staphylococcus aureus ATCC 29213
[15] = tested on: M. smegmatis ATCC 700084; experiment: In vitro antimycobacterial MIC, broth dilution micro-method; assay type: cell-based, Mycobacterium smegmatis; conditions: Mycolicibacterium smegmatis, ATCC700084, 72 h; MS = M. smegmatis ATCC 700084; 3 days, 37 °C
[16] = tested on: methicillin-resistant S. aureus SA 630 (MRSA2); experiment: MBC, agar aliquot subculture method; assay type: cell-based; conditions: Staphylococcus aureus; MRSA2 = SA 630
[17] = tested on: vancomycin-resistant E. faecalis VRE 725B (VRE3); experiment: MIC, microtitration broth method; assay type: cell-based, Enterococcus faecalis; conditions: VRE3 = VRE 725B; 24 h, 37 °C
[18] = tested on: vancomycin-resistant E. faecalis VRE 368 (VRE2); experiment: MIC, microtitration broth method; assay type: cell-based, Enterococcus faecalis; conditions: VRE2 = VRE 368; 24 h, 37 °C
[19] = tested on: vancomycin-resistant E. faecalis VRE 342B (VRE1); experiment: MIC, microtitration broth method; assay type: cell-based, Enterococcus faecalis; conditions: VRE1 = VRE 342B; 24 h, 37 °C
[20] = tested on: methicillin-resistant S. aureus SA 3202 (MRSA1); experiment: MBC, agar aliquot subculture method; assay type: cell-based; conditions: Staphylococcus aureus; MRSA1 = SA 3202
[21] = tested on: Enterococcus faecalis ATCC 29212; experiment: MIC, microtitration broth method; assay type: cell-based; conditions: ATCC29212; EF = Enterococcus faecalis; 24 h, 37 °C
[22] = tested on: Staphylococcus aureus ATCC 29213; experiment: MIC, microtitration broth method; assay type: cell-based; conditions: ATCC29213; SA = Staphylococcus aureus ATCC 29213; 24 h, 37 °C

## C#CCOc1ccc2c(c1)Sc1c[n+](C)c3ccccc3c1N2 [Compound 6g, 9-propargyloxy-5-methyl-12H-quino[3,4-b][1,4]benzothiazinium chloride]
[1]
  chromatographic logP: 2.11
[2]
  MIC: 45.1 µM
[3]
  MBC: 90.1 µM
[4]
  Effect on plasma membrane permeability (uptake of crystal violet): did not affect plasma membrane permeability
[5]
  MBC: 90.1 µM
[6]
  MIC: 45.1 µM
[7]
  MBC: 45.1 µM
[8]
  MBC: 90.1 µM
[9]
  Conc.: corresponding multiple of MBC with at least 70% inhibition of respiratory activity: 2× MIC (2× MBC)
  Conc.: lowest multiple of MIC with at least 70% inhibition of respiratory activity: 2× MIC (2× MBC)
  Decrease in viability < 70% at MIC value (MTT): did not show a decrease in viability < 70%
  S. aureus Respiration Inhibition: 96.8%
[10]
  MIC: 11.3 µM
[11]
  IC50: > 100 µM
[12]
  MBC: 90.1 µM
[13]
  MIC: 45.1 µM
[14]
  MBC: 45.1 µM
[15]
  MIC: 22.5 µM
[16]
  MBC: 45.1 µM
[17]
  MIC: 90.1 µM
[18]
  MIC: 90.1 µM
[19]
  MIC: 90.1 µM
[20]
  MBC: 45.1 µM
[21]
  MIC: 90.1 µM
[22]
  MIC: 45.1 µM

## C[n+]1cc2c(c3ccccc31)Nc1ccc(OCc3ccccc3)cc1S2 [Compound 6j, 9-benzyloxy-5-methyl-12H-quino[3,4-b][1,4]benzothiazinium chloride]
[1]
  chromatographic logP: 3.41
[2]
  MIC: 9.83 µM
[3]
  MBC: 78.6 µM
[4]
  Effect on plasma membrane permeability (uptake of crystal violet): did not affect plasma membrane permeability
[5]
  MBC: 39.3 µM
[6]
  MIC: 2.46 µM
[7]
  MBC: 2.46 µM
[8]
  MBC: 39.3 µM
[9]
  S. aureus Respiration Inhibition: 91.3%
[10]
  MIC: 2.5 µM
[11]
  IC50: 37.7 µM
[12]
  MBC: 19.7 µM
[13]
  MIC: 4.91 µM
[14]
  MBC: 9.83 µM
[15]
  MIC: 9.83 µM
[16]
  MBC: 9.83 µM
[17]
  MIC: 39.3 µM
[18]
  MIC: 78.6 µM
[19]
  MIC: 19.7 µM
[20]
  MBC: 9.83 µM
[21]
  MIC: 19.7 µM
[22]
  MIC: 9.83 µM

## C=CCOc1ccc2c(c1)Nc1c(c[n+](C)c3ccccc13)S2 [Compound 6e, 10-allyloxy-5-methyl-12H-quino[3,4-b][1,4]benzothiazinium chloride]
[1]
  chromatographic logP: 2.47
[2]
  MIC: 44.8 µM
[3]
  MBC: 179 µM
[4]
  Effect on plasma membrane permeability (uptake of crystal violet): did not affect plasma membrane permeability
[5]
  MBC: 89.6 µM
[6]
  MIC: 22.4 µM
[7]
  MBC: 22.4 µM
[8]
  MBC: 89.6 µM
[9]
  Conc.: corresponding multiple of MBC with at least 70% inhibition of respiratory activity: 2× MIC (2× MBC)
  Conc.: lowest multiple of MIC with at least 70% inhibition of respiratory activity: 2× MIC (2× MBC)
  Decrease in viability < 70% at MIC value (MTT): did not show a decrease in viability < 70%
  S. aureus Respiration Inhibition: 97.4%
[10]
  MIC: 11.2 µM
[11]
  IC50: > 100 µM
[12]
  MBC: 179 µM
[13]
  MIC: 44.8 µM
[14]
  MBC: 44.8 µM
[15]
  MIC: 22.4 µM
[16]
  MBC: 44.8 µM
[17]
  MIC: 89.6 µM
[18]
  MIC: 179 µM
[19]
  MIC: 179 µM
[20]
  MBC: 44.8 µM
[21]
  MIC: 89.6 µM
[22]
  MIC: 44.8 µM

## CCCOc1ccc2c(c1)Sc1c[n+](C)c3ccccc3c1N2 [Compound 6a, 9-propoxy-5-methyl-12H-quino[3,4-b][1,4]benzothiazinium chloride]
[1]
  chromatographic logP: 1.65
[2]
  MIC: 22.3 µM
[3]
  MBC: 89.1 µM
[4]
  Effect on plasma membrane permeability (uptake of crystal violet): did not affect plasma membrane permeability
[5]
  MBC: 89.1 µM
[6]
  MIC: 11.1 µM
[7]
  MBC: 11.1 µM
[8]
  MBC: 178 µM
[9]
  Conc.: corresponding multiple of MBC with at least 70% inhibition of respiratory activity: 2× MIC (2× MBC)
  Conc.: lowest multiple of MIC with at least 70% inhibition of respiratory activity: 2× MIC (2× MBC)
  Decrease in viability < 70% at MIC value (MTT): did not show a decrease in viability < 70%
  S. aureus Respiration Inhibition: 97.7%
[10]
  MIC: 22.3 µM
[11]
  IC50: > 100 µM
[12]
  MBC: 89.1 µM
[13]
  MIC: 22.3 µM
[14]
  MBC: 22.3 µM
[15]
  MIC: 22.3 µM
[16]
  MBC: 22.3 µM
[17]
  MIC: 89.1 µM
[18]
  MIC: 89.1 µM
[19]
  MIC: 89.1 µM
[20]
  MBC: 22.3 µM
[21]
  MIC: 89.1 µM
[22]
  MIC: 22.3 µM

Source: PMC9736374, “Design, Synthesis and Antimicrobial Properties of New Tetracyclic Quinobenzothiazine Derivatives” (International Journal of Molecular Sciences, 2022)
